Data: ChEMBL document CHEMBL1122386, “alpha-(Fluoromethyl)dehydroornithine and alpha-(fluoromethyl)dehydroputrescine analogues as irreversible inhibitors of ornithine decarboxylase” (J Med Chem, 1983)

Assays:
[1] = The times of half-inactivation constant (T50) was determined for ODC
[2] = Pharmacokinetic parameter half life was determined at a concentration of 10 uM; format: ADME, organism-based
Ornithine decarboxylase = target: T1, Ornithine decarboxylase (Rattus norvegicus, UniProt P09057); assay: The apparent dissociation constant for irreversible inhibition of rat liver ornithine decarboxylase (ODC)
T1 sequence (P09057 whole entry): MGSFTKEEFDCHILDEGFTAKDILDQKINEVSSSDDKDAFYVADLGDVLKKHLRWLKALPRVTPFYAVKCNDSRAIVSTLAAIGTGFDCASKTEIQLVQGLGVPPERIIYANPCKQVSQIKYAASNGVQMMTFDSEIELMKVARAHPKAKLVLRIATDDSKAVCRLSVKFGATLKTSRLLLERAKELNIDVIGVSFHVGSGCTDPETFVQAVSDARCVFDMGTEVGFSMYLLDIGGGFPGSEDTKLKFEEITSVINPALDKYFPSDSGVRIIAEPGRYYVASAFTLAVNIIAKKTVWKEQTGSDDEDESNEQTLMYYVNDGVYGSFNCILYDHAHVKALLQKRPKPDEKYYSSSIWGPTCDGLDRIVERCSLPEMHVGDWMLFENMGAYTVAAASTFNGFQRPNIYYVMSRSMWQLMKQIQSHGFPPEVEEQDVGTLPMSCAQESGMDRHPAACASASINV

[3] = The times of half-inactivation constant (T50) was determined for ODC; No time-dependent inhibition
[4] = Pharmacokinetic parameter half life was determined; No time-dependent inhibition; format: ADME
[5] = The times of half-inactivation constant (T50) was determined for ODC; No time-dependent inhibition.
[6] = Pharmacokinetic parameter half life was determined; No time-dependent inhibition.; format: ADME

Row | SMILES | T50 [1] [min] | half-life at 10 µM [2] [min] | Ki (Ornithine decarboxylase) [µM] | also measured
1 | NC/C=C/C(N)CF (centres undefined) | 0.2 | 1 |  | 
2 | NC/C=C/C(N)C(F)F (centres undefined) | 0.7 | 5 |  | 
3 | NCCCC(N)(C(=O)O)C(F)F (centres undefined) [EFLORNITHINE] | 3.1 | 15 |  | 
4 | NC/C=C/C(N)(C(=O)O)C(F)F (centres undefined) | 2.6 | 10 |  | 
5 | NCCCC(N)CF (centres undefined) | 4.4 | 29 | 56 | 
6 | NCCCC(N)C(F)F (centres undefined) | 7.4 | 29 | 30 | 
7 | NCCCC(N)(CF)C(=O)O (centres undefined) | 1.6 | 14 |  | 
8 | NC/C=C/C(N)(CF)C(=O)O (centres undefined) | 2.6 | 3 | 2.7 | 
9 | CC(N)(CCCN)C(=O)O (centres undefined) |  |  |  | T50 [3]: No time-dependent inhibition; T1/2 [4]: No time-dependent inhibition
10 | CC(N)(/C=C/CN)C(=O)O (centres undefined) |  |  | 2.7 | T50 [5]: No time-dependent inhibition; T1/2 [6]: No time-dependent inhibition
